Source: the NIST ThermoML archive (doi:10.1021/je060271a)
± gives the expanded uncertainty stated by the source.

Settings: 343.15 K, Liquid, Vibrating tube method

CCCCCCC(=O)OCC(COC(=O)CCCCCC)(COC(=O)CCCCCC)COC(=O)CCCCCC [pentaerythritol tetraheptanoate]
mass density (18415 kPa): 953.8 ± 1.2 kg/m3
mass density (18445 kPa): 953.9 ± 1.2 kg/m3
mass density (18482 kPa): 953.8 ± 1.2 kg/m3
mass density (18513 kPa): 954 ± 1.2 kg/m3
mass density (18540 kPa): 953.8 ± 1.2 kg/m3
mass density (18543 kPa): 953.8 ± 1.2 kg/m3
mass density (18564 kPa): 954 ± 1.2 kg/m3
mass density (18575 kPa): 953.9 ± 1.2 kg/m3
mass density (18587 kPa): 953.9 ± 1.2 kg/m3
mass density (18610 kPa): 954 ± 1.2 kg/m3
mass density (18613 kPa): 954 ± 1.2 kg/m3
mass density (18633 kPa): 954 ± 1.2 kg/m3
mass density (18645 kPa): 953.9 ± 1.2 kg/m3
mass density (18661 kPa): 954.1 ± 1.2 kg/m3
mass density (18683 kPa): 953.9 ± 1.2 kg/m3
mass density (18685 kPa): 954.1 ± 1.2 kg/m3
mass density (18708 kPa): 954 ± 1.2 kg/m3
mass density (18712 kPa): 954 ± 1.2 kg/m3
mass density (18737 kPa): 953.9 ± 1.2 kg/m3
mass density (18761 kPa): 954.1 ± 1.2 kg/m3
mass density (18790 kPa): 954 ± 1.2 kg/m3
mass density (18814 kPa): 954 ± 1.2 kg/m3
mass density (18842 kPa): 954 ± 1.2 kg/m3
mass density (18866 kPa): 954.2 ± 1.2 kg/m3
mass density (18891 kPa): 954 ± 1.2 kg/m3
mass density (18920 kPa): 954.3 ± 1.2 kg/m3
mass density (18944 kPa): 954.2 ± 1.2 kg/m3
mass density (18968 kPa): 954.1 ± 1.2 kg/m3
mass density (18992 kPa): 954.2 ± 1.2 kg/m3
mass density (19022 kPa): 954.1 ± 1.2 kg/m3
mass density (19041 kPa): 954.1 ± 1.2 kg/m3
mass density (19047 kPa): 954.2 ± 1.2 kg/m3
mass density (19065 kPa): 954.3 ± 1.2 kg/m3
mass density (19072 kPa): 954.3 ± 1.2 kg/m3
mass density (19094 kPa): 954.3 ± 1.2 kg/m3
mass density (19102 kPa): 954.3 ± 1.2 kg/m3
mass density (19119 kPa): 954.4 ± 1.2 kg/m3
mass density (19127 kPa): 954.3 ± 1.2 kg/m3
mass density (19144 kPa): 954.3 ± 1.2 kg/m3
mass density (19152 kPa): 954.2 ± 1.2 kg/m3
mass density (19168 kPa): 954.4 ± 1.2 kg/m3
mass density (19178 kPa): 954.4 ± 1.2 kg/m3
mass density (19198 kPa): 954.4 ± 1.2 kg/m3
mass density (19208 kPa): 954.3 ± 1.2 kg/m3
mass density (19224 kPa): 954.4 ± 1.2 kg/m3
mass density (19233 kPa): 954.4 ± 1.2 kg/m3
mass density (19249 kPa): 954.4 ± 1.2 kg/m3
mass density (19259 kPa): 954.4 ± 1.2 kg/m3
mass density (19275 kPa): 954.4 ± 1.2 kg/m3
mass density (19288 kPa): 954.4 ± 1.2 kg/m3
mass density (19314 kPa): 954.4 ± 1.2 kg/m3
mass density (19340 kPa): 954.5 ± 1.2 kg/m3
mass density (19360 kPa): 954.5 ± 1.2 kg/m3
mass density (19391 kPa): 954.4 ± 1.2 kg/m3
mass density (19421 kPa): 954.6 ± 1.2 kg/m3
mass density (19437 kPa): 954.6 ± 1.2 kg/m3
mass density (19446 kPa): 954.5 ± 1.2 kg/m3
mass density (19468 kPa): 954.6 ± 1.2 kg/m3
mass density (19478 kPa): 954.4 ± 1.2 kg/m3
mass density (19493 kPa): 954.7 ± 1.2 kg/m3
mass density (19503 kPa): 954.7 ± 1.2 kg/m3
mass density (19514 kPa): 954.7 ± 1.2 kg/m3
mass density (19534 kPa): 954.6 ± 1.2 kg/m3
mass density (19540 kPa): 954.7 ± 1.2 kg/m3
mass density (19561 kPa): 954.5 ± 1.2 kg/m3
mass density (19577 kPa): 954.6 ± 1.2 kg/m3
mass density (19587 kPa): 954.6 ± 1.2 kg/m3
mass density (19602 kPa): 954.6 ± 1.2 kg/m3
mass density (19618 kPa): 954.6 ± 1.2 kg/m3
mass density (19628 kPa): 954.6 ± 1.2 kg/m3
mass density (19644 kPa): 954.5 ± 1.2 kg/m3
mass density (19660 kPa): 954.7 ± 1.2 kg/m3
mass density (19670 kPa): 954.7 ± 1.2 kg/m3
mass density (19686 kPa): 954.8 ± 1.2 kg/m3
mass density (19697 kPa): 954.8 ± 1.2 kg/m3
mass density (19712 kPa): 954.7 ± 1.2 kg/m3
mass density (19729 kPa): 954.7 ± 1.2 kg/m3
mass density (19756 kPa): 954.6 ± 1.2 kg/m3
mass density (19783 kPa): 954.7 ± 1.2 kg/m3
mass density (19814 kPa): 954.6 ± 1.2 kg/m3
mass density (19842 kPa): 954.8 ± 1.2 kg/m3
mass density (19869 kPa): 954.7 ± 1.2 kg/m3
mass density (19902 kPa): 954.8 ± 1.2 kg/m3
mass density (19926 kPa): 954.8 ± 1.2 kg/m3
mass density (19958 kPa): 954.9 ± 1.2 kg/m3
mass density (19985 kPa): 954.9 ± 1.2 kg/m3
mass density (20013 kPa): 954.8 ± 1.2 kg/m3
mass density (20045 kPa): 954.9 ± 1.2 kg/m3
mass density (20073 kPa): 955 ± 1.2 kg/m3
mass density (20106 kPa): 955 ± 1.2 kg/m3
mass density (20134 kPa): 954.9 ± 1.2 kg/m3
mass density (20162 kPa): 954.9 ± 1.2 kg/m3
mass density (20189 kPa): 955 ± 1.2 kg/m3
mass density (20223 kPa): 955 ± 1.2 kg/m3
mass density (20251 kPa): 955.1 ± 1.2 kg/m3
mass density (20281 kPa): 955 ± 1.2 kg/m3
mass density (20292 kPa): 955.2 ± 1.2 kg/m3
mass density (20310 kPa): 955.1 ± 1.2 kg/m3
mass density (20321 kPa): 955.1 ± 1.2 kg/m3
mass density (20344 kPa): 955.1 ± 1.2 kg/m3
mass density (20350 kPa): 955.1 ± 1.2 kg/m3
mass density (20373 kPa): 955.1 ± 1.2 kg/m3
mass density (20384 kPa): 955.1 ± 1.2 kg/m3
mass density (20401 kPa): 955 ± 1.2 kg/m3
mass density (20412 kPa): 955.1 ± 1.2 kg/m3
mass density (20429 kPa): 955.1 ± 1.2 kg/m3
mass density (20463 kPa): 955.2 ± 1.2 kg/m3
mass density (20492 kPa): 955.2 ± 1.2 kg/m3
mass density (20504 kPa): 955.2 ± 1.2 kg/m3
mass density (20527 kPa): 955.3 ± 1.2 kg/m3
mass density (20555 kPa): 955.2 ± 1.2 kg/m3
